# Measurements taken from US11840686B2, “Modulation of prekallikrein (PKK) expression” (Ionis Pharmaceuticals, Inc., priority 2013, dated 2023).
# Strand notation (5' to 3'): a small letter for the sugar, then the base; units joined by * are phosphorothioate-linked, units joined directly phosphodiester-linked; [ ] holds rarer units or linkages, { } end groups; capitals alone tell only the bases. e = 2'-O-(2-methoxyethyl) (MOE); k = constrained ethyl (cEt); [5mC] = 5-methylcytosine; d = 2'-deoxy (DNA)
# System: human PKK mRNA
# Assay: Antisense inhibition of human PKK mRNA in HepaRG cells, 1,000 nM, MOE/deoxy/cEt oligonucleotides (Example 3)
# Assay type: cell-based
# Settings: HepaRG cells, 1,000 nM antisense oligonucleotide, Table 29
# In short: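 Readout is percent PKK mRNA reduction against untreated controls, by real-time PCR (RTS3454) adjusted for total RNA via RIBOGREEN. Oligonucleotides, phosphorothioate gapmers of 16 nucleosides with cEt, MOE and deoxy sugars, were delivered at 1,000 nM by electroporation to 20,000 HepaRG cells/well for roughly 24 h.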
row,Substance,% inhibition [%]
1,548542 (antisense eG*e[5mC]*kG*d[5mC]*d[5mC]*dA*dT*d[5mC]*d[5mC]*dT*dT*d[5mC]*dA*kA*kT*e[5mC]) [compound 548542],7

# Same assay, conditions: HepaRG cells, electroporation with 1,000 nM antisense oligonucleotide, approx. 24 hours, PKK mRNA by RT-PCR (RTS3454), relative to untreated control cells; Table 25 experiment
row,Substance,% inhibition [%]
1,548210 (e[5mC]*eA*kA*d[5mC]*dA*dA*dT*d[5mC]*dT*d[5mC]*dT*dG*dG*kT*k[5mC]*eA; antisense) [compound 548210],55

# Same assay, conditions: HepaRG cells, electroporation with 1,000 nM antisense oligonucleotide, approx. 24 hours, PKK mRNA by RT-PCR (RTS3454), relative to untreated control cells; Table 26 experiment
row,Substance,% inhibition [%]
1,548293 (eG*eT*k[5mC]*dA*d[5mC]*d[5mC]*dA*dG*dA*dA*d[5mC]*d[5mC]*dA*k[5mC]*kA*eT; antisense) [compound 548293],44
2,548294 (eG*eT*kG*dT*dG*d[5mC]*dA*d[5mC]*dT*dT*dT*d[5mC]*dT*kG*kG*eT; antisense) [compound 548294],33
3,548230 (eT*eA*k[5mC]*dT*d[5mC]*dA*dT*dT*dG*dT*dT*dG*dT*kG*kT*eG; antisense) [compound 548230],10
4,548284 (antisense e[5mC]*e[5mC]*k[5mC]*d[5mC]*d[5mC]*dT*dG*dT*dA*dG*dT*dT*dG*kG*k[5mC]*eT) [compound 548284],35

# Same assay, conditions: HepaRG cells, electroporation with 1,000 nM antisense oligonucleotide, approximately 24 hours, primer probe set RTS3454, relative to untreated control cells; experiment of Table 23
row,Substance,% inhibition [%]
1,547945 (eA*eA*k[5mC]*dT*dT*dG*dG*dT*dG*dT*dG*d[5mC]*d[5mC]*kA*k[5mC]*eT; antisense) [compound 547945],62
2,547924 (eG*eT*k[5mC]*d[5mC]*dG*dA*d[5mC]*dA*d[5mC]*dA*d[5mC]*dA*dA*kA*kA*eG; antisense) [compound 547924],53

# Same assay, conditions: HepaRG cells, electroporation with 1,000 nM antisense oligonucleotide, approximately 24 hours, primer probe set RTS3454, relative to untreated control cells; experiment of Table 24
row,Substance,% inhibition [%]
1,548063 (eG*eT*kA*dT*dA*dA*dA*dT*dT*dG*dT*dG*d[5mC]*kT*kT*eG; antisense) [compound 548063],35
2,548014 (eT*eG*kT*d[5mC]*d[5mC]*d[5mC]*d[5mC]*dA*dG*dT*dG*dT*dT*kA*k[5mC]*eA; antisense) [compound 548014],31
3,548016 (eA*eA*kG*dA*dG*dT*dT*dT*dG*dT*dT*d[5mC]*d[5mC]*kT*k[5mC]*e[5mC]; antisense) [compound 548016],55
4,548052 (e[5mC]*eA*kA*dA*dG*dG*dA*dG*d[5mC]*d[5mC]*dT*dG*dG*kA*kG*eT; antisense) [compound 548052],43
5,548021 (e[5mC]*eA*k[5mC]*dT*d[5mC]*dT*d[5mC]*d[5mC]*d[5mC]*d[5mC]*dA*dA*dG*kA*kA*eG; antisense) [compound 548021],0

# Same assay, conditions: PKK mRNA, HepaRG cells, 1,000 nM antisense oligonucleotide; Table 31
row,Substance,% inhibition [%]
1,548630 (antisense eT*eG*kG*dT*d[5mC]*d[5mC]*d[5mC]*dA*dA*dA*dT*dT*dG*kG*kA*eG) [compound 548630],33
2,548616 (antisense eA*eT*kT*dG*dG*dT*dG*dG*d[5mC]*dG*dG*dG*dA*kT*k[5mC]*eG) [compound 548616],35
3,548625 (antisense eG*eT*kT*d[5mC]*dT*dA*d[5mC]*dA*d[5mC]*dA*d[5mC]*dA*dG*kT*kA*e[5mC]) [compound 548625],0
4,548645 (antisense e[5mC]*e[5mC]*kA*dG*d[5mC]*dG*d[5mC]*dA*dA*dT*dT*d[5mC]*dT*kG*k[5mC]*eT) [compound 548645],8
5,548649 (antisense eG*e[5mC]*k[5mC]*dT*d[5mC]*dT*d[5mC]*dA*dG*dA*d[5mC]*dG*dG*k[5mC]*kA*e[5mC]) [compound 548649],0

# Same assay, conditions: Table 19; HepaRG cells, electroporation with 1,000 nM antisense oligonucleotide, approximately 24 hours; PKK mRNA by RT-PCR (RTS3454), relative to untreated control cells
row,Substance,% inhibition [%]
1,548098 (antisense eA*eG*kA*d[5mC]*dA*d[5mC]*d[5mC]*dA*dG*dG*dT*dT*dG*k[5mC]*kT*e[5mC]) [compound 548098],0
2,548086 (antisense e[5mC]*eT*kA*dA*dG*dG*dG*dA*d[5mC]*d[5mC]*dA*d[5mC]*d[5mC]*kT*kG*eA) [compound 548086],36
3,548090 (antisense e[5mC]*eA*kA*dA*d[5mC]*dT*dA*dA*dG*dG*dG*dA*d[5mC]*k[5mC]*kA*e[5mC]) [compound 548090],46
4,548103 (antisense eT*eG*kT*dA*d[5mC]*dT*d[5mC]*dA*dG*d[5mC]*dG*dA*d[5mC]*kT*kT*eT) [compound 548103],66

# Same assay, conditions: Table 20; HepaRG cells, electroporation with 1,000 nM antisense oligonucleotide, approximately 24 hours; PKK mRNA by RT-PCR (RTS3454), relative to untreated control cells
row,Substance,% inhibition [%]
1,547912 (eA*eT*k[5mC]*d[5mC]*dA*d[5mC]*dA*dT*d[5mC]*dT*dG*dA*dG*kA*kA*e[5mC]; antisense) [compound 547912],23
2,547872 (antisense eT*eG*k[5mC]*dT*dA*dA*d[5mC]*d[5mC]*dT*dT*dA*dG*dA*k[5mC]*kA*e[5mC]) [compound 547872],85
3,547889 (eT*eT*k[5mC]*d[5mC]*dG*dG*dT*dA*d[5mC]*dT*d[5mC]*dT*dG*k[5mC]*k[5mC]*eT; antisense) [compound 547889],91
4,547860 (antisense eT*e[5mC]*k[5mC]*dT*d[5mC]*dT*d[5mC]*dA*dT*dA*dT*d[5mC]*dA*kA*k[5mC]*eT) [compound 547860],71

# Same assay, conditions: Table 21 experiment; HepaRG cells, electroporation with 1,000 nM antisense oligonucleotide, approx. 24 hours; PKK mRNA by RT-PCR (RTS3454), relative to untreated control cells
row,Substance,% inhibition [%]
1,547779 (antisense eA*eT*kT*dG*d[5mC]*dT*dT*d[5mC]*dT*dT*dG*dG*dA*kG*kG*eT) [compound 547779],41

# Same assay, conditions: Table 22 experiment; HepaRG cells, electroporation with 1,000 nM antisense oligonucleotide, approx. 24 hours; PKK mRNA by RT-PCR (RTS3454), relative to untreated control cells
row,Substance,% inhibition [%]
1,547912 (eA*eT*k[5mC]*d[5mC]*dA*d[5mC]*dA*dT*d[5mC]*dT*dG*dA*dG*kA*kA*e[5mC]; antisense) [compound 547912],53
2,547872 (antisense eT*eG*k[5mC]*dT*dA*dA*d[5mC]*d[5mC]*dT*dT*dA*dG*dA*k[5mC]*kA*e[5mC]) [compound 547872],73
3,547887 (e[5mC]*e[5mC]*kG*dG*dT*dA*d[5mC]*dT*d[5mC]*dT*dG*d[5mC]*d[5mC]*kT*kT*eG; antisense) [compound 547887],99
4,547889 (eT*eT*k[5mC]*d[5mC]*dG*dG*dT*dA*d[5mC]*dT*d[5mC]*dT*dG*k[5mC]*k[5mC]*eT; antisense) [compound 547889],97
5,547860 (antisense eT*e[5mC]*k[5mC]*dT*d[5mC]*dT*d[5mC]*dA*dT*dA*dT*d[5mC]*dA*kA*k[5mC]*eT) [compound 547860],70

# Same assay, conditions: Table 27; HepaRG cells, 1,000 nM antisense oligonucleotide; human PKK mRNA
row,Substance,% inhibition [%]
1,548367 (antisense eG*eT*kT*d[5mC]*dT*dT*dG*dA*dG*dT*dG*dT*dA*kG*kA*eG) [compound 548367],52
2,548347 (antisense eG*e[5mC]*kT*dG*dT*dT*d[5mC]*dT*dA*dA*dG*d[5mC]*dG*kA*kG*eA) [compound 548347],31

# Same assay, conditions: Table 28; HepaRG cells, 1,000 nM antisense oligonucleotide; human PKK mRNA
row,Substance,% inhibition [%]
1,548465 (e[5mC]*eT*kG*dT*dA*d[5mC]*d[5mC]*dT*dA*dT*dA*dA*d[5mC]*kT*kG*eT; antisense) [compound 548465],0
2,548467 (e[5mC]*eA*kT*d[5mC]*dA*d[5mC]*dT*dG*dT*dA*d[5mC]*d[5mC]*dT*kA*kT*eA; antisense) [compound 548467],20
3,548531 (antisense eG*eT*k[5mC]*dA*dG*dA*dA*dG*dG*d[5mC]*d[5mC]*dT*d[5mC]*kT*kT*eA) [compound 548531],21
4,548500 (antisense eA*eT*kT*dG*d[5mC]*dT*d[5mC]*dA*dG*dG*d[5mC]*d[5mC]*d[5mC]*k[5mC]*k[5mC]*eT) [compound 548500],29
5,548483 (e[5mC]*eT*kA*d[5mC]*dA*dG*dA*dT*d[5mC]*dA*dT*d[5mC]*d[5mC]*k[5mC]*kT*eA; antisense) [compound 548483],5

# Same assay, conditions: Table 30; human PKK mRNA, HepaRG cells, 1,000 nM antisense oligonucleotide
row,Substance,% inhibition [%]
1,548448 (eT*e[5mC]*kA*d[5mC]*dT*dG*dT*d[5mC]*d[5mC]*dT*dA*dT*dG*kT*k[5mC]*eA; antisense) [compound 548448],61
2,548451 (eG*eT*k[5mC]*d[5mC]*dT*dA*dT*dA*dA*d[5mC]*dT*dA*dT*kA*kA*e[5mC]; antisense) [compound 548451],0
3,548445 (antisense e[5mC]*e[5mC]*kT*dA*dT*dG*dT*d[5mC]*dA*d[5mC]*dT*dG*dT*kA*k[5mC]*e[5mC]) [compound 548445],62
4,548437 (antisense eT*eA*kT*dA*dT*d[5mC]*dA*d[5mC]*dT*dG*dT*dA*d[5mC]*k[5mC]*kT*eG) [compound 548437],74
